Literature values in patent US20090054493A1, “THIAZOLE DERIVATIVES AS PPAR DELTA LIGANDS AND THEIR MANUFACTURING PROCESS” (priority 2005, published 2009).

How the values were obtained:
PPARδ = target: T1, PPARδ (Homo sapiens, UniProt Q03181); conditions: background art, cited from earlier work
T1 sequence (Q03181 1-441): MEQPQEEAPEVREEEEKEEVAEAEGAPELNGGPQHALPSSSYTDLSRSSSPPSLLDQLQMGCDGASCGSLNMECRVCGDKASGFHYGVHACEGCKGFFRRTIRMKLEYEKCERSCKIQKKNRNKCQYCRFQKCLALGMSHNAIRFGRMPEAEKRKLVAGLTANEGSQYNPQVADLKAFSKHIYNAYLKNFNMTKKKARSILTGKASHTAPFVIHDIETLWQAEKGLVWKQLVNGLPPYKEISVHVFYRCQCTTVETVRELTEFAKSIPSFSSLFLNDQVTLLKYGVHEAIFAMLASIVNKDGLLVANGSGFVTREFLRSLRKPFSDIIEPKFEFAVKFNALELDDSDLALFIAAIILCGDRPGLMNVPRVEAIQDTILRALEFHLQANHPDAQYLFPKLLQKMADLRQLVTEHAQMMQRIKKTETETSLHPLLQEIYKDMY

PPARγ = target: T2, PPARγ (Mus musculus, UniProt P37238); conditions: test on rodents, background art; cited from earlier work
T2 sequence (P37238 1-505): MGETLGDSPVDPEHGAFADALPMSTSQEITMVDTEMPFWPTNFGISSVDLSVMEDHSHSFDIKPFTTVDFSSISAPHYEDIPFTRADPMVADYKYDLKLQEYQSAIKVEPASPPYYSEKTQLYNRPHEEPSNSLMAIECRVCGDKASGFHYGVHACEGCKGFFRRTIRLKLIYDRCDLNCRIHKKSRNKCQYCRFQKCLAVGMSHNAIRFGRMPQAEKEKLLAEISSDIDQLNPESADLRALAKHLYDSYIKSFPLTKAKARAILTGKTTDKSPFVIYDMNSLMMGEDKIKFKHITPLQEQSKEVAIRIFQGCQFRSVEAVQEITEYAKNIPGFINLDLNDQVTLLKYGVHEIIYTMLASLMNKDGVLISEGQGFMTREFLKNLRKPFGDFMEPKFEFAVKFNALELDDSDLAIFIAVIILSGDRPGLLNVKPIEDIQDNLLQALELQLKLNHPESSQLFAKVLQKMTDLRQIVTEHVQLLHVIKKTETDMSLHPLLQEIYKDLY

Which “selectivity for hPPARδ than PPARα and PPARγ” value (PPARδ) does the source give for `CCCc1c(OCCCOc2ccc(OCC(=O)O)cc2)ccc(C(C)=O)c1O` [Example L-165041] here?
Its value is 10 fold.

And the EC50 (PPARδ; hPPARδ)?
Its EC50 is 530 nM.

And the “selectivity for PPARγ” value (PPARγ)?
Its value is “almost no selectivity”.
